We go through seven molecules from publication PMC9329436, “Optimization of the 4-anilinoquin(az)oline scaffold as epidermal growth factor receptor (EGFR) inhibitors for chordoma utilizing a toxicology profiling assay platform” (Scientific Reports, 2022).

The test system of this series is HL60 cells. Description: AsedaSciences SYSTEMETRIC Cell Health Screen (flow cytometry toxicity profiling). The note with it: HL60, 4 h, 5 nM–100 µM; for CC: Cell Cycle score / CM: Cell morphology score / CMI: Cell membrane integrity score / GSH: Glutathione score / MMP: Mitochondrial membrane depolarization score / NMI1: Nuclear membrane integrity 1 score / NMI2: Nuclear membrane integrity 2 score / ROS: Reactive superoxide species score: probability 0–1, n = 2; for CHI: Cell Health Index: probability (0–1) of high-risk class, n = 2. The source says: To prioritize further optimization, in addition to cellular potency, we utilized the AsedaSciences® […]® Cell Health Screen. This live cell flow cytometry (FC) screen was developed to assess human safety risk for candidate pharmaceutical small molecules at the early hit-to-lead stage of development. The screen works by estimating the risk using a supervised machine learning (ML) classifier to assess a multiparametric cellular stress phenotype, produced by the test compound, relative to a training set of known compounds (Table S1). This screen has been designed for early pipeline risk estimation regardless of pharmaceutical class/disease type, so it uses HL60 as the reporter cell line.
The ML classifier was trained with 300 historically known compounds (on market or withdrawn drugs, research compounds, etc.), which were divided into two outcome classes based upon literature, clinical trials, and market histories where applicable. This external curation informed an outcome of “high-risk” or “low-risk”. All 300 compounds were also processed through the automated FC screen, populating each of the two classes with frequency distributions of empirical cell-based phenotypes.
To estimate human safety risk for an unknown compound, the ML classifier assesses the similarity of the test compound’s cell-based phenotype to the distributions of phenotypes in the two outcome classes. […] Phenotypes are derived from twelve FC detection parameters, including light scatter and a series of fluorescent physiological reporter dyes, that track cell stress-related endpoints.
To produce the Cell Health Index, the ML classifier uses all twelve FC parameters simultaneously in a multidimensional logistic regression model, so the CHI contains the most predictive power. In addition to the Cell Health Index, Table 4 also reports probability scores for eight cell stress-related endpoints. These scores are produced individually by passing information to the ML classifier relating to parameters that inform that endpoint. For example, to produce the cell morphology (CM) score, the ML classifier only uses the FC detection parameters for forward scatter (informing change in cell diameter) and side scatter (informing change in optical granularity of the cell) to inform the model. Together, these eight endpoints provide a “biological fingerprint”, allowing assessment of the degree to which SAR series members behave differently across endpoints.
In a 384-well platform, HL60 cells were exposed to a 10-step, 3 × dilution series of each test compound (5 nM–100 µM) for 4 h at 37 °C with 5% CO2. Each dilution series was screened in duplicate, occupying a total of 20 wells, allowing 16 test compounds to be assayed per plate. Each row contained one positive and one negative control well, for a total of 16 replicate positive/negative control pairs on each assay plate. Compound formatting, cell deposition, and dye application were performed robotically so that final assay conditions comprised 100,000 cells in a 40 µL volume. After the 4 h compound exposure, cells were immediately stained with a panel of fluorescent dyes that report physiological signatures of both mitochondrial dysfunction and gross cell stress. Fluorescence and forward/side-scatter data were collected using automated FC with no gating. FC data are processed by an automated algorithm for producing quality control measures and ML classification of compound phenotypes. • 2. HL60 cell culture production
HL60 cells were produced as suspension cultures in glass 850 cm^2 roller bottles with vented caps, at 1 RPM, 5% CO2, and 37 °C. […] Culture density was maintained at or below 1 × 10^6 cells/mL.

SMILES strings stand for the structures.

Consider `CS(=O)(=O)CCNCc1ccc(-c2ccc3ncnc(Nc4ccc(OCc5cccc(F)c5)c(Cl)c4)c3c2)o1` [Lapatinib, reference compound], for which the “CC: Cell Cycle score” value was 0.93, the “CM: Cell morphology score” value came to 1.00, the “CMI: Cell membrane integrity score” value is recorded as 1.00 and the “GSH: Glutathione score” value is listed as 0.96. Besides, the “MMP: Mitochondrial membrane depolarization score” value is reported as 1.00, the “NMI1: Nuclear membrane integrity 1 score” value is 0.97, the “NMI2: Nuclear membrane integrity 2 score” value worked out at 0.92 and the “ROS: Reactive superoxide species score” value was found to be 0.90. The “CHI: Cell Health Index” value stood at 0.89.

`CC(C)(C(=O)O)c1ccc(C(O)CCCN2CCC(C(O)(c3ccccc3)c3ccccc3)CC2)cc1` (stereo not drawn) [Fexofenadine, reference compound]: the “CC: Cell Cycle score” value is 0.020, the “CM: Cell morphology score” value was determined as 0.00, the “CMI: Cell membrane integrity score” value is given as 0.040 and the “MMP: Mitochondrial membrane depolarization score” value turned out to be 0.020. In addition, the “ROS: Reactive superoxide species score” value is given as 0.16.

As to `CCC(C)(C)C(=O)O[C@H]1C[C@@H](C)C=C2C=C[C@H](C)[C@H](CC[C@@H]3C[C@@H](O)CC(=O)O3)[C@H]21` [Simvastatin, reference compound], the “CC: Cell Cycle score” value is 0.12, the “CM: Cell morphology score” value was 0.030, the “CMI: Cell membrane integrity score” value amounted to 0.080 and the “GSH: Glutathione score” value is 0.41. Moreover, the “MMP: Mitochondrial membrane depolarization score” value stood at 0.060, the “NMI1: Nuclear membrane integrity 1 score” value was found to be 0.29, the “NMI2: Nuclear membrane integrity 2 score” value is on record as 0.10 and the “ROS: Reactive superoxide species score” value was found to be 0.11.

Regarding `Clc1cccc(Cl)c1N=C1NCCN1` [Clonidine, reference compound], the “CC: Cell Cycle score” value came out at 0.060, the “CM: Cell morphology score” value was determined as 0.00, the “CMI: Cell membrane integrity score” value amounted to 0.030 and the “GSH: Glutathione score” value was found to be 0.10. In addition, the “MMP: Mitochondrial membrane depolarization score” value was 0.010, the “NMI1: Nuclear membrane integrity 1 score” value is listed as 0.15, the “NMI2: Nuclear membrane integrity 2 score” value is listed as 0.040 and the “ROS: Reactive superoxide species score” value is listed as 0.040. The “CHI: Cell Health Index” value amounted to 0.14.

For `CSc1ccc2c(c1)N(CCC1CCCCN1C)c1ccccc1S2` (stereo not drawn) [Thioridazine, reference compound], the “CC: Cell Cycle score” value was 0.89, the “CM: Cell morphology score” value was found to be 1.00, the “CMI: Cell membrane integrity score” value is recorded as 1.00 and the “GSH: Glutathione score” value is listed as 1.00. For the same molecule, the “MMP: Mitochondrial membrane depolarization score” value is recorded as 1.00, the “NMI1: Nuclear membrane integrity 1 score” value stood at 1.00, the “NMI2: Nuclear membrane integrity 2 score” value is 1.00 and the “ROS: Reactive superoxide species score” value is 1.00. The “CHI: Cell Health Index” value was found to be 0.85.

As for `COc1cc2c(Nc3ccc(Cl)c(Cl)c3F)ncnc2cc1OC[C@@H]1C[C@@H]2CN(C)C[C@@H]2C1` [Tesevatinib, reference compound], the “CC: Cell Cycle score” value is 0.96, the “CM: Cell morphology score” value turned out to be 1.00, the “CMI: Cell membrane integrity score” value is on record as 1.00 and the “GSH: Glutathione score” value worked out at 1.00. The “MMP: Mitochondrial membrane depolarization score” value is given as 1.00, the “NMI1: Nuclear membrane integrity 1 score” value came out at 0.91, the “NMI2: Nuclear membrane integrity 2 score” value is 0.99 and the “ROS: Reactive superoxide species score” value stood at 1.00. Also, the “CHI: Cell Health Index” value was determined as 0.92.

With `Cc1ccc(N(CC2=NCCN2)c2cccc(O)c2)cc1` [Phentolamine, reference compound], the “CC: Cell Cycle score” value turned out to be 0.040, the “CM: Cell morphology score” value was 0.00, the “CMI: Cell membrane integrity score” value is reported as 0.16 and the “GSH: Glutathione score” value was found to be 0.17. Besides, the “MMP: Mitochondrial membrane depolarization score” value came out at 0.29, the “NMI1: Nuclear membrane integrity 1 score” value is recorded as 0.64, the “NMI2: Nuclear membrane integrity 2 score” value was 0.79 and the “ROS: Reactive superoxide species score” value worked out at 0.11.
